In series [1] the test system is HEK 293T cells expressing the WT TRPV3. Put plainly: in vitro. It counts as cell-based, human. To be noted: 24 h.
The next series has as its target T1, TRPV3 (Homo sapiens, UniProt Q8NET8).
T1 sequence (Q8NET8 1-790): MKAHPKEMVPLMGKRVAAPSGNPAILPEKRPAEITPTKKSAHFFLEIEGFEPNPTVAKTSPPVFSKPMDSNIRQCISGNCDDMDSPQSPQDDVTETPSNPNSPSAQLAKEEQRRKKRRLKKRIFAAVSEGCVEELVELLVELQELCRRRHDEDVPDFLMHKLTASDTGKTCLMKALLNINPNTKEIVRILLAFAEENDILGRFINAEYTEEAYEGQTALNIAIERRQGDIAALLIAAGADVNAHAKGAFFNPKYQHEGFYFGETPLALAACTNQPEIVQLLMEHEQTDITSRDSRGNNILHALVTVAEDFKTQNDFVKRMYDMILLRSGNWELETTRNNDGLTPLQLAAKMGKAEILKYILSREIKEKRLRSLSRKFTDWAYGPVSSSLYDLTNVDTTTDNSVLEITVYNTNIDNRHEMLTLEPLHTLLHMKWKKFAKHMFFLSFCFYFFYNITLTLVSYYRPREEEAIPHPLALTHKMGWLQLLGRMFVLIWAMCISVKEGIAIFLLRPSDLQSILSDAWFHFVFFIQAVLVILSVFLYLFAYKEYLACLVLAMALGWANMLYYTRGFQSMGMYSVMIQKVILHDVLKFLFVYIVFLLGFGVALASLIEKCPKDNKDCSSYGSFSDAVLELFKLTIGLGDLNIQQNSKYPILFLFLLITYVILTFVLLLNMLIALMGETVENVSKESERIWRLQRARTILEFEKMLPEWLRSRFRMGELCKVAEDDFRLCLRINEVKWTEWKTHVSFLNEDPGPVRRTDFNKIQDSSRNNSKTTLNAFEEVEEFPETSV
Nature of the series: Whole-cell patch-clamp, 2-APB-evoked TRPV3 current in hTRPV3-overexpressing HEK 293T cells. It counts as cell-based. Further details: expressed in transfected cells. An excerpt:
First, we used a conventional whole-cell patch-clamp to record the TRPV3 current in HEK 293T cells overexpressing hTRPV3. Then, different concentrations of alpha-mangostin were perfused into the cells to determine the effects of alpha-mangostin on the TRPV3 current. Alpha-mangostin inhibited 2-APB-evoked TRPV3 current, as shown in a representative cell in Figure 1A.
Figure 1 Alpha-mangostin (α-MG) inhibited the TRPV3 current. […] (A) Alpha-mangostin inhibited 2-APB-evoked current in a representative TRPV3 overexpressing HEK 293T cell. The channel was activated using 100 µM 2-APB and subsequently perfused with solutions containing different concentrations of alpha-mangostin with 100 µM 2-APB. A solution containing 10 µM ruthenium red (RR, a TRP channel inhibitor) and 100 µM 2-APB was perfused at the end. […] Currents were normalized to the maximum response to 2-APB at −100 mV. (C) Alpha-mangostin inhibited carvacrol-evoked current in a representative TRPV3-overexpressing HEK 293T cell. TRPV3 was activated using 1000 µM carvacrol and subsequently perfused with solutions containing different concentrations of alpha-mangostin with 1000 µM carvacrol. A solution containing 10 µM RR and 1000 µM carvacrol was perfused at the end. (D) Summary of normalized currents evoked by carvacrol with or without alpha-mangostin at −100 mV. Currents were normalized to the maximum response carvacrol at −100 mV. (E) Alpha-mangostin inhibited 2-APB-evoked current in NHEK. The channel was activated using 100 µM 2-APB and subsequently perfused with solutions containing different concentrations of alpha-mangostin with 100 µM 2-APB. A solution containing 10 µM 74a (a TRPV3 inhibitor) and 100 µM 2-APB was perfused at the end. […] The right panel summarizes normalized currents evoked by 2-APB with or without alpha-mangostin at −100 mV. Currents were normalized to the maximum response to 2-APB at −100 mV. Data are presented as means ± SEM. ** p < 0.01, *** p < 0.001, **** p < 0.0001.
HEK 293T cells were purchased from the American Type Culture Collection (Cat. No. CRL-3216, ATCC, Manassas, VA, USA). TRPV3-overexpressing HEK 293T cells were supplied by Prof. Wan Lee (Dongguk University College of Medicine, Gyeongju, South Korea). HEK 293T cells expressing TRPV3 mutants (G573S, G573C), TRPV4, TRPA1 were made by transient transfection. These cells were cultured in Dulbecco’s modified Eagle’s medium (DMEM, Welgene, Daegu, Korea) containing 10% fetal bovine serum (FBS; Welgene) and 1% penicillin/streptomycin (P/S; Life Technologies, Carlsbad, CA, USA). […]
[…] Sampling at 10 kHz and low-pass filtering at 5 kHz (w-c) were applied for all recorded currents. Recorded data were analyzed using Clampfit ver. […]
On the technique in general: In patch-clamp work, channel activity is measured electrically.

`COc1c(O)cc2oc3cc(O)c(CC=C(C)C)c(O)c3c(=O)c2c1CC=C(C)C` [Alpha-mangostin]: the “Increase of viability of cells expressing the WT channel” value in series [1] (1 µM alone) is reported as “not statistically significant”. Besides, the “Cell viability (normalized O.D., compared with mock cells)” value in series [1] (human, 1 µM) is on record as 82.07% ± 1.34. Besides, the “Inhibition of 2-APB-evoked TRPV3 currents” value on TRPV3 (10 µM, 100 µM 2-APB, −100 mV, similar level to 10 µM ruthenium red) is recorded as “almost completely inhibited”. Besides, the inhibition (as a rule, how much of the control response was suppressed) at 0.3 µM at TRPV3 (HEK-293T, 0.3 µM, −100 mV, read-out: Inhibition percentage of TRPV3 current) is 76.6%. In addition, the IC50 (as a rule, the midpoint of a concentration-inhibition curve) at TRPV3 (hTRPV3-overexpressing HEK 293T, 100 µM 2-APB, at −100 mV, read-out: IC50, inhibition of 2-APB-induced TRPV3 current) came out at 0.077 ± 0.013 µM. The “Reversibility of inhibitory effect on TRPV3 current” value on TRPV3 (wash out, 100 µM 2-APB, −60 mV holding potential) is on record as “partly reversible”.

The values are drawn from publication PMC10455244, “Alpha-Mangostin: A Potent Inhibitor of TRPV3 and Pro-Inflammatory Cytokine Secretion in Keratinocytes” (International Journal of Molecular Sciences, 2023).
